# Experimental data as given in patent US5830903A, “Triazole substituted quinoline derivatives for gastrointestinal treat-treatment” (Alkaloida Chemical Co., Ltd., priority 1993, dated 1998).
# Marks after values point to notes of the source that are not given here.
# Columns and labels:
# [1] = tested on: histamine stimulated hydrochlorid acid secretion; assay: Histamine stimulated gastric acid secretion in Shay rats; format: in vivo; details: for acid secretion μEqu/4^h: p < 0.01
# Protocol: The test substances were added on the course of operation intra-duodenally. Immediately after operation each rat obtained 0.50 ml s.c. of a physiological salt solution for hydration. After 4 hours the rats were over-anesthesized, the stomach liquid was collected, centrifugated and the volume determined. […] Measurement of stimulated secretion of gastric acid was also carried out according to the above method.
# [2] = tested on: alcohol induced increase of gastric glandular capillary permeability; assay: Alcohol induced increase of gastric glandular capillary permeability; format: in vivo, rats; details: for Evans-blue: p < 0.05
# Protocol: After 13 minutes 1 ml of 100% ethanol was added perorally and after further 2 minutes the stomachs were removed and their weights measured. […]
# [3] = Acute toxicity in rats; details: rat, in vivo, po, per os, 14 days
# Protocol: (§1) To determine acute toxicity the test substances were administered in increasing doses to CFLP male mice (18-20 g) and to male Wistar rats (150-160 g). The LD50 values were calculated after 14 days of observation according to Litchfield and Wilcoxon.
# [4] = tested on: lesions caused by the NSAID naproxen; assay: Naproxen-induced gastric erosions, test substance 1 hour after naproxen; format: in vivo, WISTAR rats; details: n = 7
# Protocol: (§2) Administration of the test substances followed 1 hour after injection. After 4 hours the animals were over-anesthesized with ether and the changes (erosions) were evaluated as in Example I.1. The size of the lesions was characterized by way of the ulcer index.
# [5] = tested on: ulcers induced by reserpine; assay: Reserpine induced ulcers; format: in vivo, female OFA rats; details: 40 mg/kg p.o.; reserpine 5 mg/kg s.c.; 18 h
# Protocol: Female OFA rats of 130-160 g weight, starved for 24 hours, were treated at the same time perorally with 40 mg/kg doses of the substances to be tested and with 5 mg/kg s.c. doses of reserpine. After 18 hours the animals were over-anesthesized and the removed stomachs were investigated under stereomicroscope using a 8-fold enlargement. The number of ulcers was counted and their size was evaluated using 0-0.5-1-2-4-8-16-32 scores. The number of animals was 5 for each dose.
# [6] = Acute toxicity in mice; details: mouse, in vivo, po, per os, 14 days
# Protocol: as §1
# [7] = tested on: lesions induced with hydrochloric acid and ethanol; assay: Gastric haemorrhages induced by hydrochloric acid in ethanol (cytoprotection); format: in vivo, female rats; details: for average length of haemmorrhages, change in %: treated vs control
# Protocol: The volume of treatment was 0.5 ml/100 g. […] The average degree of haemorrhages of the treated groups was compared to the control groups treated with the vehicle only. Number of animals was 6-18 in each group.
# [8] = tested on: lesions caused by intomethacin; assay: Indomethacin-induced gastric lesions; format: in vivo, female OFA-rats; details: Rattus norvegicus, po, 60 min before 20 mg/kg indomethacin; 6 h; from ulcer index; confidence limits 95%; read-out: ED50 mg/kg (p.o.)
# Protocol: The compounds were administered in a volume of 0.5 ml/100 g in a suspension prepared in water with 2-4% Tween-80. After 6 hours the animals were over-anesthesized and their stomachs were opened along the greater curvature. The preparations were investigated by stereomicroscopy using an 8-fold enlargement. The number, size and incidence of erosions and ulcers was noted and compared with the control group treated with the carrier only.
# The size of the ulcers was determined on the basis of the following score:
# 1: ulcer or erosion of the size of 1-2 mm;
# 2: ulcer or erosion of the size of 2-3 mm;
# 3: ulcer or erosion of the size of 3-4 mm;
# 4: ulcer longer than 4 mm;
# 5: ulcer longer and broader than 4 mm.
# The ED50 values were calculated on the basis of ulcer-indexes:
# ulcer index=/severeity of lesion x number of lesions/number of animals /n/
# [9] = tested on: basic gastric acid secretion; assay: Basic gastric acid secretion in Shay rats (pylorus ligation); format: in vivo; details: for acidity μEqu/ml / volume: 4 h
# Protocol: The pilorus of Shay rats of 150-170 g weight was tied in ether narcosis /Gastroenterology 5,43,1945/. The test substances were added on the course of operation intra-duodenally. Immediately after operation each rat obtained 0.50 ml s.c. of a physiological salt solution for hydration. After 4 hours the rats were over-anesthesized, the stomach liquid was collected, centrifugated and the volume determined. Acidity of the secretion was determined with 0.1N aqueous sodium hydroxide in the presence of a Tobfler reagent.
# [10] = tested on: stress ulcer caused by immersion; assay: Stress ulcer caused by immersion; format: in vivo, Wistar rats
# Protocol: 30 minutes after peroral treatment with the test substance, […]. After seven hours the glandular lesions appearing in the stomach were evaluated according to the score described in Example I.1.
# [11] = tested on: gastric blood-supply; assay: Gastric blood-supply, Rb^86 isotope method (Sapirstain); format: in vivo, Wistar female rats; details: 100 mg/kg p.o., n = 11, ± SE
# Protocol: To investigate influence of gastric blood-supply the tests were carried out according to the method of Sapirstain using Rb^86 isotopes (Circ.Res.4, 689, 1956; Am. J. Physiol. 193. 161,1958). The test substances were administered perorally 2 hours before the experiment started and the degree of blood flow was determined in ml/min/g values. In the experiments the stomachs of Wistar female rats were divided into three segments i.e. pre-stomach, corpus and anthrum.
# [12] = tested on: lesions caused by the NSAID piroxicam; assay: Piroxicam-induced gastric erosions, test substance 1 hour after piroxicam; format: in vivo, WISTAR rats; details: n = 7
# Protocol: as §2
# [13] = histamine 10 mg/kg s.c. + 5 mg/kg i.d., p < 0.05
# [14] = naproxen 75 mg/kg po. + 20 mg/kg po.
# [15] = 25 mg/kg p.o., n = 10, p < 0.01
smiles,measurement,setting,value
"c1ccc2c(-n3cncn3)ccnc2c1 [Substance 1, 4-(1H-1,2,4-triazole-1-yl)-quinoline]",acid secretion μEqu/4^h,[1]; histamine 10 mg/kg s.c. + 5 mg/kg i.d.,180 ± 12 μEqu/4^h
same,acidity μEqu/ml,[1]; [13],105 ± 10 μEqu/ml
same,volume/4^h,[1]; [13],1.7 ± 0.2 mL
same,acid secretion μEqu/4^h,[1]; histamine s.c. + 10 mg/kg i.d.,111 ± 9 μEqu/4^h
same,acidity μEqu/ml,"[1]; histamine s.c. + 10 mg/kg i.d., p < 0.05",123 ± 8 μEqu/ml
same,alcohol-induced lesions (in words),[2]; 10 and 20 mg/kg,alcohol-induced lesions are reduced
same,stomach,[2]; 100% ethanol + 10 mg/kg,0.91 ± 0.1 g
same,Evans-blue,[2]; 100% ethanol + 10 mg/kg,4.55 ± 0.3 µg/g
same,stomach,[2]; 100% ethanol + 20 mg/kg,0.93 ± 0.1 g
same,Evans-blue,[2]; 100% ethanol + 20 mg/kg,4.4 ± 0.23 µg/g
same,LD50 at 336 h,[3],560 mg/kg
same,inhibition %,[4]; [14],39%
same,ulcus index ± SEM,[4]; [14],15.6 ± 6.4
same,inhibition %,"[4]; naproxen, 30 mg/kg po.",95%
same,ulcus index ± SEM,"[4]; naproxen, 30 mg/kg po., p < 0.01",1.2 ± 0.5
same,"number of ulcers, %change compared with control",[5],+4%
same,"severity of ulcers, %change compared with control",[5],+9%
same,ulcers per treated,[5],5/5
same,LD50 at 336 h,[6],840 mg/kg
same,"average length of haemmorrhages, treated","[7]; 2.3 mg/kg p.o., n = 12, control 95.7 ± 9.4",91.0 ± 9.4 mm
same,"average length of haemmorrhages, change in %",[7]; 2.3 mg/kg p.o.,-4%
same,"average length of haemmorrhages, treated","[7]; 5.0 mg/kg p.o., n = 18, control 92.9 ± 6.3",39.7 ± 8.1 mm
same,"average length of haemmorrhages, change in %",[7]; 5.0 mg/kg p.o.,-57%
same,"average length of haemmorrhages, treated","[7]; 10.0 mg/kg p.o., n = 18, control 61.3 ± 9.8",14.2 ± 7.4 mm
same,"average length of haemmorrhages, change in %",[7]; 10.0 mg/kg p.o.,-77%
same,ED50,[8],13 mg/kg
same,acidity μEqu/ml,[9]; dose 5 i.d.,105 ± 5 μEqu/ml
same,volume,"[9]; dose 5 i.d., p < 0.05",1.4 ± 1.24 mL
same,acid secretion μEqu/4^h,"[9]; dose 5 i.d., p < 0.05",147.0 ± 0.19 μEqu/4^h
same,acidity μEqu/ml,"[9]; dose 10 i.d., not possible to titrate part of the secretion because of small volume",61 ± 5 μEqu/ml
same,volume,"[9]; dose 10 i.d., p < 0.01",0.58 ± 0.1 mL
same,acid secretion μEqu/4^h,"[9]; dose 10 i.d., p < 0.01",42.0 ± 0.3 μEqu/4^h
same,erosion inhibition %,"[10]; 10 mg/kg p.o., n = 7",21%
same,erosion ulcus-index mm,"[10]; 10 mg/kg p.o., n = 7",33.6 ± 10.2 mm
same,hyperemia inhibition %,"[10]; 10 mg/kg p.o., n = 7",29%
same,hyperemia ulcer-index mm,"[10]; 10 mg/kg p.o., n = 7",64.3 ± 8.6 mm
same,erosion ulcus-index mm,"[10]; 25 mg/kg p.o., n = 10",12.1 ± 3.6 mm
same,hyperemia ulcer-index mm,"[10]; 25 mg/kg p.o., n = 10",35.8 ± 9.4 mm
same,erosion inhibition %,[10]; [15],71%
same,hyperemia inhibition %,[10]; [15],55%
same,erosion ulcus-index mm,"[10]; 50 mg/kg p.o., n = 7",5.7 ± 1.5 mm
same,hyperemia ulcer-index mm,"[10]; 50 mg/kg p.o., n = 7",11.4 ± 2.8 mm
same,erosion inhibition %,"[10]; 50 mg/kg p.o., n = 7, p < 0.01",87%
same,hyperemia inhibition %,"[10]; 50 mg/kg p.o., n = 7, p < 0.01",85%
same,inhibition of hyperemia and erosion (in words),"[10]; substance 1 at 50 mg/kg p.o., cimetidine",significally inhibit hyperemia and erosion
same,"blood flow, pre-stomach",[11]; control 0.23 ± 0.03,0.19 ± 0.01 mL/min/g
same,"blood flow, corpus","[11]; control 0.51 ± 0.03, p < 0.02",0.70 ± 0.09 mL/min/g
same,"blood flow, anthrum",[11]; control 0.71 ± 0.07,1.01 ± 0.07 mL/min/g
same,inhibition %,[12]; piroxicam 60 mg/kg po. + 20 mg/kg po.,84%
same,ulcus index ± SEM,"[12]; piroxicam 60 mg/kg po. + 20 mg/kg po., p < 0.05",3.8 ± 0.4
same,inhibition %,"[12]; piroxicam, 30 mg/kg po.",93%
same,ulcus index ± SEM,"[12]; piroxicam, 30 mg/kg po., p < 0.01",1.8 ± 0.5
